Experimental findings from ChEMBL document CHEMBL5649166, “RIP3 induces apoptosis independent of pronecrotic kinase activity” (Mol Cell, 2014) are described below.

Experiment [1] has as its target T1, Serine/threonine-protein kinase NLK (Homo sapiens) (UniProt Q9UBE8).
T1 sequence (whole entry): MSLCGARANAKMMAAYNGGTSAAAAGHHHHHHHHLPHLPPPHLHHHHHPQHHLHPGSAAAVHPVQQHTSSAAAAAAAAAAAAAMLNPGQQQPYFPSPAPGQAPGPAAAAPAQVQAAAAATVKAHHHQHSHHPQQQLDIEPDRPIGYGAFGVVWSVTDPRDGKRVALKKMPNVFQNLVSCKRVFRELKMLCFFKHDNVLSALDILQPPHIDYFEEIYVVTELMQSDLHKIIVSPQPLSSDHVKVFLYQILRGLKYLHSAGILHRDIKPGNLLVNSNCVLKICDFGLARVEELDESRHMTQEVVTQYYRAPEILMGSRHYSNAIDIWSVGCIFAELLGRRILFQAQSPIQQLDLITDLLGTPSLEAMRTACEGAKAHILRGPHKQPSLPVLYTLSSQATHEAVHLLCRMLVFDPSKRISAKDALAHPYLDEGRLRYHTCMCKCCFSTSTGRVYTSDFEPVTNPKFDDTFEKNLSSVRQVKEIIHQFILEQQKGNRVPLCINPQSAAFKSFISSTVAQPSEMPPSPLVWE
Nature of the experiment: Inhibition of human NLK using myelin basic protein as substrate at 1 uM in presence of 32P-ATP by Hotspot assay relative to control; values are per cent of control.

For experiment [2], the target named is Ribosomal protein S6 kinase alpha-5 (Homo sapiens) (UniProt O75582). Put plainly: Inhibition of human MSK1/RPS6KA5 using GRPRTSSFAEG as substrate at 1 uM in presence of 32P-ATP by Hotspot assay relative to control; values are per cent of control.
Sequence of Ribosomal protein S6 kinase alpha-5 (Homo sapiens) (O75582 whole entry, looked up): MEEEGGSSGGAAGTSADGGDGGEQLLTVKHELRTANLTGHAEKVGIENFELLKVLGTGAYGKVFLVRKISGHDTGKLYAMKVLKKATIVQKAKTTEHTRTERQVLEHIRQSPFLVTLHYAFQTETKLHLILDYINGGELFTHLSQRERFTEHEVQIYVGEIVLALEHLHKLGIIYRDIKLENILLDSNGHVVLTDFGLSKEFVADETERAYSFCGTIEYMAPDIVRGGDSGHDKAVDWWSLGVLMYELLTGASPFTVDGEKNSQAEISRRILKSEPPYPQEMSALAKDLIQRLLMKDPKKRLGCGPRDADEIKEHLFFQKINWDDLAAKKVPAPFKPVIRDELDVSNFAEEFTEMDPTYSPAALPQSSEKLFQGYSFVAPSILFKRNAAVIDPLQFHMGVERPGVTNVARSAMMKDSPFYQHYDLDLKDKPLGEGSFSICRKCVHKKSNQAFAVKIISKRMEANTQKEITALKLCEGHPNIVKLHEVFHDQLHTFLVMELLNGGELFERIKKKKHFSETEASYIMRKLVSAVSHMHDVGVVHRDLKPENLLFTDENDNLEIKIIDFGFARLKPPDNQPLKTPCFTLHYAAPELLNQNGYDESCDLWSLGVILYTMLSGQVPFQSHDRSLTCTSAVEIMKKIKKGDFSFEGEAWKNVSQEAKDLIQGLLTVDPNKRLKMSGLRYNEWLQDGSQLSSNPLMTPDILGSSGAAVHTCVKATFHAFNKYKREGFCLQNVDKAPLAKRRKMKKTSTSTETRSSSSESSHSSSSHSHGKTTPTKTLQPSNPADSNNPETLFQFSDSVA
Experiment [3] deals with T2, Serine/threonine-protein kinase DCLK2 (Homo sapiens) (UniProt Q8N568).
T2 sequence (whole entry): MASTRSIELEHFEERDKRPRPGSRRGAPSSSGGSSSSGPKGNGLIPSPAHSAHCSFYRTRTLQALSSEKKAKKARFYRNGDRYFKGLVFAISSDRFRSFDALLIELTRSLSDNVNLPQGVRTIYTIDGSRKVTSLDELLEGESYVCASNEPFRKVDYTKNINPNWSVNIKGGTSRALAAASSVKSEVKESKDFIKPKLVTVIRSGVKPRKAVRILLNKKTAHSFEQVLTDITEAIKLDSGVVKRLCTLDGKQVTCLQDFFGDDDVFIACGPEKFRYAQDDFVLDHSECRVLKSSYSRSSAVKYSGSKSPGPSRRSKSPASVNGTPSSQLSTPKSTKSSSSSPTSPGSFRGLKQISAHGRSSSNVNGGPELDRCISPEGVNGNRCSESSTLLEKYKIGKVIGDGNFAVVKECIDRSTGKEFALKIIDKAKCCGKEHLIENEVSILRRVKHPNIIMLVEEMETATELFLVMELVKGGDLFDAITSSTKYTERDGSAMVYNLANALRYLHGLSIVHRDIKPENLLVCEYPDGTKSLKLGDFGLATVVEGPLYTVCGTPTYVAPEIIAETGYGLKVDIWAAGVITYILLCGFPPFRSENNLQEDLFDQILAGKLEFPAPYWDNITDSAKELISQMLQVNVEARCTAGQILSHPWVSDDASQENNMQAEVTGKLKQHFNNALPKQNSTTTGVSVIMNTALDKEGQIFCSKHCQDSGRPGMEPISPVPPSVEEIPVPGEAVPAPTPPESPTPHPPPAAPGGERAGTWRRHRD
Nature of the experiment: Inhibition of human DCAMKL2 using KKLNRTLSFAEPG as substrate at 1 uM in presence of 32P-ATP by Hotspot assay relative to control; values are per cent of control.

Experiment [4] deals with T3, Mitogen-activated protein kinase kinase kinase 5 (Homo sapiens) (UniProt Q99683).
T3 sequence (whole entry): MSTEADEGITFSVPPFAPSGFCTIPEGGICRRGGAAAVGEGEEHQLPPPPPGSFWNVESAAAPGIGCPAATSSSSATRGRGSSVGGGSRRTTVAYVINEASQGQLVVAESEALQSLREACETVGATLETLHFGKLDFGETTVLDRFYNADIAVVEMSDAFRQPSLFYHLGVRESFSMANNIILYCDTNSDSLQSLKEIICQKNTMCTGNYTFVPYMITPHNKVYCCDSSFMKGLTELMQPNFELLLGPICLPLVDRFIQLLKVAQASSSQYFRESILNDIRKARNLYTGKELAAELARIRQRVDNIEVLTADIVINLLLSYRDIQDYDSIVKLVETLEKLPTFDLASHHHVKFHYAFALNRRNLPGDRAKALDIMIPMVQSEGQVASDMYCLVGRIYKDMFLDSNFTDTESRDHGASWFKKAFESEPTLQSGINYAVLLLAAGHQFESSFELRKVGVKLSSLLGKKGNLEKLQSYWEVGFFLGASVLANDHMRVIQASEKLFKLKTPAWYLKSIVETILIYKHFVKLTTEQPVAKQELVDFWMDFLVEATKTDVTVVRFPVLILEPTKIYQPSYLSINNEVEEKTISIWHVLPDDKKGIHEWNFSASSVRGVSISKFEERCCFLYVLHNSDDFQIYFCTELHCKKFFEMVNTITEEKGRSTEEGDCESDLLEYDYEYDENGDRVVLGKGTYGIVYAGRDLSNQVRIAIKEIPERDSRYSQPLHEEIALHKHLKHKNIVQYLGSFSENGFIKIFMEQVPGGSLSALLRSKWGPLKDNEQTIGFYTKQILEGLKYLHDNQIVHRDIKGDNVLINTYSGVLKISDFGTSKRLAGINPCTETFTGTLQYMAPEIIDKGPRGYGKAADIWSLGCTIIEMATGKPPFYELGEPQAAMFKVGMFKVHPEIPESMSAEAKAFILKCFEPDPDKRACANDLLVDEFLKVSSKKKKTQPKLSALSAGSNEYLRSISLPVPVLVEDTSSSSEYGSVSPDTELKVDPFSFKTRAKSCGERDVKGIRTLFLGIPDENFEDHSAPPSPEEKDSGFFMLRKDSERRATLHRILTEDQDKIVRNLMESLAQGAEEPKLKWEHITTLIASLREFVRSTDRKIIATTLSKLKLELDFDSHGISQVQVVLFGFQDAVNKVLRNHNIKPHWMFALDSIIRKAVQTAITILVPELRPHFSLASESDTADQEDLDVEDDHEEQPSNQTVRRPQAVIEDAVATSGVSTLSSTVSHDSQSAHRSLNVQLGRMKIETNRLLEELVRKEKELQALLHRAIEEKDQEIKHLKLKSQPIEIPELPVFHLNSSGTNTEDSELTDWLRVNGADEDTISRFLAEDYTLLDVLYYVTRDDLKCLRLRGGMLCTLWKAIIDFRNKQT
Nature of the experiment: Inhibition of human ASK1/MAP3K5 using myelin basic protein as substrate at 1 uM in presence of 32P-ATP by Hotspot assay relative to control; values are per cent of control.

`Cc1cc(-c2cnc(N)c3c(-c4ccc5scnc5c4)csc23)n(C)n1`: the residual activity in experiment [1] is 6.75%; in experiment [2], 97.4%; in experiment [3], 95.2%; in experiment [4], 102%.

Take `CC(C)S(=O)(=O)c1ccc2nccc(Nc3ccc4scnc4c3)c2c1`: the residual activity in experiment [1] stood at 41.8%; in experiment [2], 97.9%; in experiment [3], 99.4%; in experiment [4], 97.6%.

Take `CNC(=O)c1ccc2c(c1)ncn2-c1ccc(CC(=O)OC(C)(C)C)cc1`: the residual activity in experiment [1] is 99.7%; in experiment [2], 89.4%; in experiment [3] it was 98.6%; in experiment [4], 96.7%.
